{"source": "patent US9062123B2", "about": "“Labelled adrenomedullin derivatives and their use for imaging and therapy” (PLUMOSCIENCE INC., priority 2004, dated 2015)", "key": {"[1]": {"test": "Plasma kinetics of 99mTc-cyclic AM and 99mTc-linear AM in dogs", "type": "in vivo, dog", "conditions": "two-compartment model", "procedure": "The radiolabelled AM derivatives were injected in a volume of 1.5 mL into a right jugular vein catheter. A series of 200 μl blood samples were collected 1 min after the initial injection, then repeated every 5 min for a 30-min period. After each collection, an equal volume of saline was injected into the animal to maintain blood volume and pressure. The blood samples were then placed in a gamma counter (model 1470 Wizard, Wallac, Finland) to determine ^99mTc activity. Results were expressed as a percentage of total radioactivity injected."}, "[2]": {"conditions": "dog, in vivo, iv", "procedure": "Following intravenous injection of linear ^99mTc hAM1-52, dynamic acquisition of the lungs, heart, liver and kidneys was recorded for a 30-min period (one frame/sec during the first minute, then one frame/min for the remaining time). Static acquisitions were also recorded for whole individual organs, including lungs, kidneys, liver, heart, bladder, gallbladder and muzzle, at 30, 60, 120, 240 minutes after initial injection. These recordings were performed both in ventral and dorsal positions. Dynamic and static acquisitions were evaluated by using Matlab version 7.01 image analysis tools software. The ^99mTc total count, ^99mTc mean count, and region of interest (ROI) size were calculated for each organ. Data correction was applied for 1) radioactive decay, 2) table correction (dorsal images only), 3) geometric mean, and 4) organ's attenuation based on transmission factor. Results were expressed as a percentage of total radioactivity injected."}, "[3]": {"conditions": "rat, in vivo", "description": "The animals were then sacrificed and the lungs, liver, kidneys (en bloc with the adrenal glands) and heart were removed and gravity drained."}, "[4]": {"conditions": "dog, in vivo", "experimental": "FIG. 16 illustrates in vivo single-pass measurement of purified ^99mTc linear hAM1-52 clearance in dogs. Dogs were anesthetized and a catheter was inserted into the carotid artery and positioned just above the aortic valve. This catheter is connected to a peristaltic pump for automated blood withdrawal. Another catheter is placed into the jugular vein and positioned in the right ventricular outflow tract to allow bolus injection of the study tracers. A bolus was prepared by adding 2 mCi of purified ^99mTc linear hAM1-52 to 3 ml of Evans blue dye labeled albumin and 0.9% saline for a final volume of 6 ml. A single bolus indicator-dilution experiment was performed. The collected samples were processed and indicator-dilution curves constructed and analysed. Mean tracer ^99mTc linear hAM1-52 AM extraction during the pulmonary transit time was computed from the curves. Mean tracer extraction corresponds to the difference between the areas of the outflow curve of the vascular reference (albumin) and that of the extracted tracer (^99mTc linear hAM1-52). Recirculation of the tracers apparent in the terminal portion of the curves is removed by linear extrapolation of the semi-logarithmic down slopes."}, "[5]": {"test": "Kidney uptake of 99mTc-linear AM in rats with monocrotaline kidney damage", "type": "in vivo, rat", "conditions": "for kidney activity, % of total activity injected: external counting of the organs; for kidney uptake, % of total activity injected: external detection by gamma camera, 30 minutes", "experimental": "Kidney damage was induced by a single intraperitoenal injection of monocrotaline 60 mg/kg in rats. Three weeks later the animal received were anaesthetized and mechanically ventilated. […] By both methods, the activity in the kidneys was expressed as a percentage of the total activity injected."}, "[6]": {"conditions": "for plasma level: after 10 minutes", "experimental": "The animals were anesthetized by an initial intra-muscular dose of xylazine (10 mg/kg) and ketamine (50 mg/kg), followed by an intraperitoneal injection of heparin (2000 U, Sigma Chemical Co.). Additional doses of xylazine/ketamine were used if noxious stimuli (hind feet pinching) could elicit nociceptive motor reflexes or changes of the systemic blood pressure.\n99mTc-AM-L was injected in a volume of 200 μl (0.3 pmol, 0.5 mCi) into the right jugular vein.\nDifferences between groups were evaluated by two-tailed independent samples t-tests. Plasma kinetics of ^99mTc-AM-L were analyzed using a two compartments pharmacokinetic model with Prism v4.0 software and the fitted curves were compared using an F test. All values are reported as means±standard deviations."}, "[7]": {"conditions": "in vivo", "description": "FIGS. 18 and 19 illustrate respectively images of the lungs of a dog and a rat to which purified ^99mTc linear hAM1-52 has been administered."}, "[8]": {"conditions": "dog, in vivo", "remark": "listed apart in the source", "procedure": "Following intravenous injection, dynamic acquisition of the lungs, heart, liver and kidneys was recorded for a 30-min period (one frame/sec during the first minute, then one frame/min for the remaining time). Static acquisitions was also recorded for whole individual organs, including lungs, kidneys, liver, heart, bladder, gallbladder and muzzle, at 30, 60, 120, 240 minutes after initial injection. These recordings were performed both in ventral and dorsal positions. Dynamic and static acquisitions were evaluated by using Matlab version 7.01 image analysis tools software. The ^99mTc total count, ^99mTc mean count, and region of interest (ROI) size were calculated for each organ. Data correction was applied for 1) radioactive decay, 2) table correction (dorsal images only), 3) geometric mean, and 4) organ's attenuation based on transmission factor. Results were expressed as a percentage of total radioactivity injected.\nThe images were acquired using a Siemens dual hear Ecam Gamma camera 120 min after injection of the compound."}, "[9]": {"test": "Plasma kinetics of 125I-rAM(1-50) after single intravenous injection in rats", "type": "in vivo, rat", "conditions": "given 5 min before the 125I-rAM(1-50) bolus", "experimental": "All experimental procedures were performed in accordance with the regulations and ethical guidelines from Canadian Council for the Care of Laboratory Animals, and received approval by the Animal Ethics and Research Committee of the Montreal Heart Institute. Male Sprague-Dawley rats (Charles River), weighing between 400-450 g, were anaesthetized by an initial intramuscular dose of xylazine (10 mg/kg of body weight) and ketamine (50 mg/kg of body weight), followed by an intra-peritoneal injection of heparin (2000 units; Sigma). Catheters were inserted into the right carotid artery and jugular vein. Heart rate and systemic blood pressure were monitored continuously. […] Venous and arterial blood samples (3 ml) were collected and centrifuged (1875 g, 15 min, 4° C.) and the plasma saved for subsequent measurement of irAM (immunoreactive AM). A similar amount of saline was infused into the animals to prevent hypovolaemia.\nThe animals were then killed and the lungs, liver, kidneys (en bloc with the adrenal glands) and heart were removed and gravity drained. […] Results are expressed as a percentage of total radioactivity injected. […]\nMultiple group comparisons were performed by factorial ANOVA, followed, when a significant interaction was found, by the Bonferroni/Dunn t test. […] In the canine experiments, the effect of drugs on AM extraction was analyzed by two-tailed paired Student's t tests. […]"}, "[10]": {"test": "Biodistribution / organ retention of 125I-rAM(1-50) in rats, with and without antagonists", "type": "in vivo, rat", "experimental": "The animals were then killed and the lungs, liver, kidneys (en bloc with the adrenal glands) and heart were removed and gravity drained. […] Results are expressed as a percentage of total radioactivity injected.\nThe drugs were given by either intraarterial (n=10 in each group) or intravenous (n=10 in each group) injection 5 min before the ^125I-rAM(1-50) bolus. Plasma samples and tissues were treated as described above."}, "[11]": {"test": "In vivo single-pass pulmonary extraction of 125I-rAM(1-50) in dogs (indicator-dilution)", "design": "species or system dog", "conditions": "for single-pass pulmonary extraction of 125I-rAM(1-50) after administration of the substance: dogs, intravenous bolus of 100 nmol, 5 min before", "experimental": "Dogs were anaesthetized and prepared as described in detail in reference, which is hereby incorporated by reference. A catheter was inserted into the carotid artery and positioned just above the aortic valve. This catheter was connected to a peristaltic pump for automated blood withdrawal. Another catheter was placed into the jugular vein and positioned in the right ventricular outflow tract to allow bolus injection of the study tracers. A bolus was prepared by adding 3.3 μCi of 125I-rAM(1-50) (2.9 pmol) to 3 ml of Evans-Blue-dye labelled albumin and 0.9% saline to give a final volume of 6 ml. The mixture was separated into three equal parts for the two successive experiments in each animal and to realize dilution-curve standards. A baseline single-bolus indicator-dilution experiment was performed.\nThe collected samples were processed and indicator-dilution curves constructed and analyzed as described in previously cited reference 13. Cardiac output and mean tracer AM extraction during the pulmonary transit time were computed from the curves. Mean tracer extraction corresponded to the difference between the areas of the outflow curve of the vascular reference (albumin) and that of the extracted tracer (AM). Recirculation of the tracers apparent in the terminal portion of the curves was removed by linear extrapolation of the semi-logarithmic down slopes."}, "[12]": {"target": "AM1 (CRLR+RAMP2) receptor, lungs of dogs", "sequence (A0A8I3NWR4 25-462)": "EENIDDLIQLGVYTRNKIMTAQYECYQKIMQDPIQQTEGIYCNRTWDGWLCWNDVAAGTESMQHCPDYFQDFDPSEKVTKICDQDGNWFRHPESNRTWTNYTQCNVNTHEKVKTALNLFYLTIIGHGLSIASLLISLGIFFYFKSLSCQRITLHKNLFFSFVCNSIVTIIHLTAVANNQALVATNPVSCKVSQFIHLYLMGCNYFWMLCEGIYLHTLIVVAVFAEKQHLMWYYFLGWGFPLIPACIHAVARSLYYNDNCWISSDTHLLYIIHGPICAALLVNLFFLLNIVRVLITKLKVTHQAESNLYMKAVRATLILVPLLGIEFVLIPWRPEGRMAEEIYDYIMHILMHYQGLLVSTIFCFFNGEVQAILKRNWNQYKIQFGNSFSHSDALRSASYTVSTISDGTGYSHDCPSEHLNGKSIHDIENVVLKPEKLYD", "test": "Displacement of labelled human adrenomedullin in the lungs of dogs", "type": "binding, dog", "conditions": "displacement of labelled hAM"}}, "note": "Where two headings read alike, the source gives them in different places. Ends that are not written are not given here."}
{"compound": "CC[C@H](C)[C@H](NC(=O)[C@H](CCC(N)=O)NC(=O)[C@H](Cc1c[nH]cn1)NC(=O)[C@H](C)NC(=O)[C@H](CC(C)C)NC(=O)[C@H](CCCCN)NC(=O)[C@H](CCC(N)=O)NC(=O)[C@@H](NC(=O)[C@@H](NC(=O)[C@@H]1CSSC[C@H](NC(=O)CNC(=O)[C@H](Cc2ccccc2)NC(=O)[C@H](CO)NC(=O)[C@H](CCCNC(=N)N)NC(=O)[C@H](CC(C)C)NC(=O)CNC(=O)[C@H](CCC(N)=O)NC(=O)[C@H](Cc2ccccc2)NC(=O)[C@H](CC(N)=O)NC(=O)[C@H](CC(N)=O)NC(=O)[C@H](CCSC)NC(=O)[C@H](CO)NC(=O)[C@H](CCC(N)=O)NC(=O)[C@H](CCCNC(=N)N)NC(=O)[C@H](Cc2ccc(O)cc2)NC(=O)CN(CCN(CCN(CC(=O)O)CC(=O)O)CC(=O)O)CC(=O)O)C(=O)N[C@@H](CCCNC(=N)N)C(=O)N[C@@H](Cc2ccccc2)C(=O)NCC(=O)N[C@@H]([C@@H](C)O)C(=O)N1)[C@@H](C)O)C(C)C)C(=O)N[C@@H](Cc1ccc(O)cc1)C(=O)N[C@@H](CCC(N)=O)C(=O)N[C@@H](Cc1ccccc1)C(=O)N[C@H](C(=O)N[C@@H](CC(=O)O)C(=O)N[C@@H](CCCCN)C(=O)N[C@@H](CC(=O)O)C(=O)N[C@@H](CCCCN)C(=O)N[C@@H](CC(=O)O)C(=O)N[C@@H](CC(N)=O)C(=O)N[C@H](C(=O)N[C@@H](C)C(=O)N1CCC[C@H]1C(=O)N[C@@H](CCCNC(=N)N)C(=O)N[C@@H](CO)C(=O)N[C@@H](CCCCN)C(=O)N[C@H](C(=O)N[C@@H](CO)C(=O)N1CCC[C@H]1C(=O)N[C@@H](CCC(N)=O)C(=O)NCC(=O)N[C@@H](Cc1ccc(O)cc1)C(N)=O)[C@@H](C)CC)C(C)C)[C@@H](C)O", "note": "[^99mTc-cyclic AM, metal not drawn]", "values": [{"measurement": "distribution half-life", "setting": "[1]", "value": "less than two min"}]}
{"compound": "^99mTc-linear AM: linear hAM(1-52) labelled directly with 99mTc", "values": [{"measurement": "lung retention", "setting": "[2]", "value": 24, "unit": "%"}, {"measurement": "lung retention", "setting": "[3]", "value": "significantly retained by lungs"}, {"measurement": "route of elimination", "setting": "[3]", "value": "eliminated by the kidneys (mostly) and the liver"}, {"measurement": "thyroid uptake", "setting": "[3]", "value": "minimal"}, {"measurement": "time for which lung uptake is maintained", "setting": "[3]", "value": "at least 1 hour"}, {"measurement": "mean single pass extraction by the lung", "setting": "[4]", "value": 21, "unit": "%"}, {"measurement": "kidney activity, % of total activity injected", "setting": "[5]; control rats", "value": "27%±6%"}, {"measurement": "kidney uptake, % of total activity injected", "setting": "[5]; control rats", "value": "23%±3%"}, {"measurement": "kidney activity, % of total activity injected", "setting": "[5]; monocrotaline treated rats", "value": "11%±7%"}, {"measurement": "kidney uptake, % of total activity injected", "setting": "[5]; monocrotaline treated rats", "value": "10%±6%"}, {"measurement": "plasma level", "setting": "[6]; PAH (MCT) rats", "value": "2.08±0.65", "unit": "% ID"}, {"measurement": "plasma level", "setting": "[6]; control rats", "value": "1.25±0.28", "unit": "% ID"}, {"measurement": "plasma levels in PAH compared to control animals", "setting": "[6]; fitted curves, rats", "value": "approximately two-fold higher"}, {"measurement": "pulmonary uptake, image", "setting": "[7]; dog", "value": "relatively specific and homogeneous pulmonary uptake"}, {"measurement": "pulmonary uptake, image", "setting": "[7]; rat", "value": "relatively specific and homogeneous pulmonary uptake"}, {"measurement": "kidney retention", "setting": "[8]", "value": "20-30%"}, {"measurement": "kidney retention, whole body imaging", "setting": "[8]", "value": "significantly retained by the kidney"}, {"measurement": "reduction in kidney uptake after MCT", "setting": "MCT versus control rats", "value": "about 50%"}, {"measurement": "heart uptake, ex vivo", "setting": "PAH (MCT) rats", "value": "0.77±0.46", "unit": "% ID"}, {"measurement": "lung uptake, in vivo biodistribution", "setting": "PAH (MCT) rats, gamma camera, 30 minutes", "value": "4±1", "unit": "%"}, {"measurement": "lung retention, ex vivo", "setting": "PAH (MCT) rats, gamma counter, 30 minutes", "value": "3±1", "unit": "%"}, {"measurement": "reduction in lung uptake in PAH", "setting": "PAH versus control rats", "value": "~70", "unit": "%"}, {"measurement": "heart uptake, ex vivo", "setting": "rat, in vivo", "value": "0.18±0.03", "unit": "% ID"}, {"measurement": "lung retention, ex vivo", "setting": "rat, in vivo", "value": "11±2", "unit": "% ID"}, {"measurement": "liver, kidney and bladder activities, MCT group compared to control group", "setting": "rats, 30 minutes", "value": "increased liver uptake but lower kidney and bladder activities"}]}
{"compound": "unlabelled rAM(1-50): unlabelled rat adrenomedullin (1-50), American Peptide (YRQSMNQGSRSTGCRFGTCTMQKLAHQIYQFTDKDKDGMAPRNKISPQGY; ends and bridges not checked; cysteine pairing not given here)", "values": [{"measurement": "effect on plasma kinetics of radiolabelled rAM(1-50)", "setting": "[9]", "value": "did not modify plasma kinetics"}, {"measurement": "effect on amount of 125I-rAM(1-50) retained by the liver, kidneys and heart", "setting": "[10]; given before the tracer", "value": "significantly increased"}, {"measurement": "effect on lung activity of 125I-rAM(1-50)", "setting": "[10]; given before the tracer", "value": "important reduction in lung activity"}, {"measurement": "single-pass pulmonary extraction of 125I-rAM(1-50) after administration of the substance", "setting": "[11]", "value": "21.9±2.4", "unit": "%"}, {"measurement": "mean extraction of 125I-rAM(1-50) after injection of the substance", "setting": "[11]; same dog, second experiment", "value": 12, "unit": "%"}]}
{"compound": "hAM(22-52): C-terminal human AM fragment that blocks the specific AM receptor", "values": [{"measurement": "effect on plasma kinetics of radiolabelled rAM(1-50)", "setting": "[9]", "value": "did not modify plasma kinetics"}, {"measurement": "effect on activity of 125I-rAM(1-50) retained in kidneys", "setting": "[10]; given before the tracer", "value": "elevated the retained activity"}, {"measurement": "effect on biodistribution of 125I-rAM(1-50)", "setting": "[10]; given before the tracer", "value": "did not significantly modify this distribution"}, {"measurement": "effect on pulmonary first-pass retention of 125I-rAM(1-50)", "setting": "[10]; prior administration", "value": "not affected"}, {"measurement": "single-pass pulmonary extraction of 125I-rAM(1-50) after administration of the substance", "setting": "[11]", "value": "31.4±3.3", "unit": "%"}, {"measurement": "IC50", "setting": "[12]", "value": 810, "unit": "nM"}]}
